These results are taken from patent publication US8158106B2, “Particle immobilized coatings and uses thereof” (Surmodics, Inc., priority 2001, dated 2012).

The structures appear in SMILES notation.

Series [1] in a line: Entrapment of microparticles disposed on pre-irradiated photopolymer matrix spots, presence after washes. The class given is physicochemical. The note with it: 9.9 μm silica microparticles disposed on irradiated spots, compound 2.5 mg/ml. The source says: Different polymeric materials were used to immobilize microparticles on a substrate. First, different polymers were disposed and treated on a substrate to form matrices. This was followed by disposing the microparticles on the substrates which were immobilized via the matrices. Four different photoreactive polymers were used to immobilize 9.9 μm diameter silica microparticles on substrates. […] Pat. No. 5,714,360 to Swan et al., issued Feb., 3, 1998, commonly owned by the assignee of the present invention, the disclosure of which is incorporated herein in its entirety), a non-polymeric photoreactive compound, was evaluated. […] Each solution was printed with 25 gauge disposable needles (PrecisionGlide Needles, Becton Dickinson and Co., Franklin Lakes, N.J.) and an x-y programmable stage (CAMM-3, Roland Digital Group, Irvine, Calif.) onto glass microscope slides which had been functionalized with silanes, as in Example 1, and onto acrylic slides (Cadillac Plastics, Minneapolis, Minn.). This printing forms a pattern of approximately 300-400 μm diameter spots on the substrates. The patterned slides were irradiated for two minutes with ultraviolet light as detailed in Example 1. After irradiation, 500 μl of an aqueous solution of 2 mg/ml 9.9 μm diameter silica microparticles (S[…], Bangs Laboratories, Fisher, Ind.) was placed over the patterned area for one minute to allow the microparticles to associate and become entrapped in the polymer matrices. The slides were then rinsed with 0.1% v/v Tween-20 aqueous solution to remove any free microparticles. Following this, the array was washed to remove loosely bound microspheres. The array was washed three times with 1×PBS (pH 7.4) with 0.1% v/v Tween-20, and then rinsed with deionized water. […] After imaging, the arrays were incubated in a solution of 0.1M TRIS and 50 mM ethanolamine (T/E) wash buffer for 1 hour at 50° C., followed by two rinses with deionized water. The microarrays were then incubated in a solution of 4×SSC/0.1% SDS for two hours at 50° C. and rinsed in deionized water. This was the final step at which imaging was done to evaluate the respective polymers.

The nature of series [2]: Printed slurries of photoreactive compound and microparticles, presence after washes. The class given is physicochemical. To be noted: slurry of 2.5 mg/ml compound and 20 mg/ml 9.9 μm silica microspheres printed, then irradiated. The procedure:
Slurries were prepared, each containing different polymers and microparticles. These slurries were then disposed on a substrate and treated to form matrices in which microparticles were immobilized. Different polymeric materials were used to immobilize microparticles on a substrate. Four different photoreactive polymers were used to immobilize 9.9 μm diameter silica microparticles on substrates: […] BBDQ (as described in Example 4) a non-polymeric photoreactive material was also used in this Example. […] Each mixture was printed with 25 gauge disposable needles (PrecisionGlide Needles, Becton Dickinson and Co., Franklin Lakes, N.J.) and an x-y programmable stage (CAMM-3, Roland Digital Group, Irvine, Calif.) onto glass microscope slides which had been functionalized with silanes, as detailed in Example 1 and onto acrylic slides (Cadillac Plastics, Minneapolis, Minn.). This printing forms a pattern of approximately 300-400 μm diameter spots on the substrates. The coated substrates were irradiated for two minutes with ultraviolet light as detailed in Example 1. The coated substrates were then imaged with a fluorescence microscope (Olympus BX 60, Tokyo, Japan), to ensure that patterning was successful. Following this, the coated substrate was washed to remove any loosely bound microspheres. The coated substrates were washed three times with 1×PBS (pH 7.4) with 0.1% v/v Tween-20, rinsed with deionized water. At this point, each was again imaged with the fluorescence microscope to determine microsphere loss in the various photoreactive polymer matrices. After imaging, the coated substrates were incubated in a solution of T/E wash buffer for 1 hour at 50° C., followed by two rinses with deionized water. The coated substrates were then incubated in a solution of 4×SSC/0.1% SDS for two hours at 50° C. and rinsed in deionized water.

As for `C[N+](C)(CC[N+](C)(C)Cc1ccc(C(=O)c2ccccc2)cc1)Cc1ccc(C(=O)c2ccccc2)cc1.[Br-].[Br-]` [BBDQ, ethylene(4-benzoylbenzyldimethylammonium)dibromide], the “Presence of microparticles after PBS-Tween wash” value is on record as “Some loss” in series [1] (Acrylic substrate), “Some loss” in series [1] (Glass substrate), “No loss” in series [2] (Acrylic substrate) and “No loss” in series [2] (Glass substrate). For the same molecule, the “Presence of microparticles after high salt wash (4X SSC)” value in series [1] (Acrylic substrate), in series [1] (Glass substrate), in series [2] (Acrylic substrate) and in series [2] (Glass substrate) was “Complete loss” in each case. The “Presence of microparticles before washes” value in series [1] (Acrylic substrate), in series [1] (Glass substrate), in series [2] (Acrylic substrate) and in series [2] (Glass substrate) was “Present” each time.
